Measurements taken from article PMC6009590 (The Journal of Infectious Diseases, 2018).
[ ]: non-standard residue; d: D form. The star is where a group is joined. X1 = CC(C)CCC[C@@H](C)[C@H]1CC[C@H]2[C@@H]3CC=C4C[C@@H](OC(=O)C*)CC[C@]4(C)[C@H]3CC[C@]12C; PEG4 = NCCOCCOCCOCCOCCC(=O)O

Experiments:
proteinase K [1] = biological target: T1, proteinase K (Parengyodontium album, UniProt P06873); conditions: isolated enzyme proteinase k, pH 7.5
[2] = in vivo
proteinase K [3] = biological target: T1, proteinase K; test: in vitro; conditions: isolated enzyme proteinase k, pH 7.5

T1 sequence (P06873 106-384): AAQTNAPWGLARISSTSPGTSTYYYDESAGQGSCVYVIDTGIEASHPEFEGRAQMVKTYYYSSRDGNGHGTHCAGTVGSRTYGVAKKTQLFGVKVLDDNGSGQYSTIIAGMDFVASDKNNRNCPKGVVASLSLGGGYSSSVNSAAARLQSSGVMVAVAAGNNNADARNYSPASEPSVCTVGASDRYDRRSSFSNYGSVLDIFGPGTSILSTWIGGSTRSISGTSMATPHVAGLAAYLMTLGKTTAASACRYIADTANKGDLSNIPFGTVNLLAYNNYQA

Substance	half-life of the intact peptide fraction (proteinase K [1]) [min]	biodistribution (lung, blood, CNS) [2]	half-life (proteinase K [3]) [min]
Ac-VALDPIDISIVLNKIKSDLEESKEWIRRSNKILDSI-GSGSG-dPEG4-C-(PEG4-Chol)2-NH2 [VIKI-dPEG4-bisChol]	3		
Ac-VALDPIDISIVLNKIKSDLEESKEWIRRSNKILDSI-GSGSG-dPEG4-C-(PEG4-Toco)2-NH2 [VIKI-dPEG4-bisToco]	5		
Ac-VALDPIDISIVLNKIKSDLEESKEWIRRSNKILDSIGSGSG[PEG4]C(X1)-NH2 [VIKI-dPEG4-Chol]		reached high levels in the lung	10
